According to patent US20110281944A1, “METHOD OF A RHEIN COMPOUND FOR INHIBITING PANCREATIC ISLET BETA-CELL DYSFUNCTION AND PREVENTING OR TREATING A PANCREATIC ISLET BETA-CELL DYSFUNCTION RELATED DISORDER” (Research Institute of Nephrology of Nanjing PLA, China, priority 2010, published 2011):
Several values for one entry are separate records, joined by “and”; a condition that tells them apart may be missing. Equal values may be shown once. Entries after “also recorded” stand apart in the source; their conditions may differ.

Key:
[1] = test system: insulin-resistant obese rats; assay: Hyperglycemic clamp in obese rats after treatment with rhein for 4 weeks; assay type: in vivo, Wistar rats
Source text: Experimental animals: Insulin-resistant obese rats are 4-week in-bred female Wistar rats induced by feeding with high-sugar high-fat feedstuff (20% sugar, 10% lard, 2.5% cholesterol, 1% cholic acid and 66.5% normal feedstuff) for 3 weeks.
Administration to the experimental animals: Thirty insulin-resistant obese rats are randomly assigned to treatment group and control group. Additional fifteen normal Wistar rats of 7 week old are used as normal control group. The treatment group of insulin-resistant obese rats is treated with rhein (100 mg/Kg, dissolved in 0.1% cellulose sodium) by gavage for continuous 4 weeks. The insulin-resistant obese control group and the normal control group are administrated with 0.1% cellulose sodium by gavage.

[2] = test system: type 2 diabetic db/db mice; assay: Intraperitoneal glucose tolerance test (IPGTT) on db/db mice after treatment with rhein for 8 weeks; assay type: in vivo; conditions: rhein 120 mg/Kg gavage 8 weeks
Experimental: Administration to the experimental animals: Thirty diabetic db/db mice of 4 week old are randomly assigned to treatment group and control group. Additional fifteen normal db/m mice of 4 week old are used as normal control group. The treatment group of diabetic db/db mice is treated with rhein (120 mg/Kg, dissolved in 0.1% cellulose sodium) by gavage for continuous 8 weeks. The diabetic control group of db/db mice and the normal control group of db/m mice are administrated 0.1% cellulose sodium by gavage.
Experimental methods: The intraperitoneal glucose tolerance test (IPGTT) is carried out on the mice after administration for 8 weeks. The mice are fasted overnight, and then are administrated by i.p. injection of glucose at 0.5 g/kg body weight. Blood is collected at 0, 30, 60 and 120 min for detecting whole blood glucose level and insulin level and calculating the area under the curve (AUC) of insulin. The area under the curve of insulin during 0˜30 min (AUCINS0.30) is calculated as: (insulin level at 30 min[…]insulin level at 0 min)×15, for evaluating the ability of early phase insulin secretion.

[3] = test system: pancreatic islet β-cells of db/db mice; assay: Immunohistochemical insulin staining and metrology analysis of pancreatic islets (β-cell amount); assay type: in vivo; conditions: administration for 8 weeks
Experimental: The agents and animals used in this example are the same as those used in example 1.
Experimental methods: Immunohistochemical assay. The mice are anaesthetized with phenobarbital sodium, perfused with physiological saline via heart, and fixed with 4% polyoxymethylene. The pancreas are removed, and then placed in 4% polyoxymethylene for 4-6 hours, embedded in paraffin, and sliced into a thickness of 5 um. The slices are dewaxed with xylene, rehydrated with ethanol at different gradient concentrations, and then treated with 0.3% hydrogen peroxide at room temperature for 20 min, so as to block the activity of endogenous peroxidase. The samples are treated with steams at 121° C. under high pressure for 10 min for repairing the antigen. 10% goat serum is added for blocking non-specific antigens. Rabbit-anti-mouse insulin antibody is added, and reacted at 4° C. overnight for 14 hours. […]
Metrology analysis of pancreatic islets: All of the slices are observed with optical microscope E800 (Nikon, Japan), and photographed with a digital camera (Sony, Japan) connected with the microscope. The digital photographs are obtained via Axiovision 4.3 software, and analyzed with Image-Pro Plus 5.0.1. Fifteen pancreatic islet photographs are randomly selected for each mouse, and at least 50 pancreatic islet photographs are analyzed for each group. […]

[4] = Oral absorption kinetics and pharmacokinetics of rhein in rats; assay type: in vivo, Wistar rats
Experimental: Grouping of the animals and experimental procedure: Eighteen Wistar rats (male: female=1:1; body weight=180˜210 g) are randomly divided into 3 groups, 6 animal each group (male 3, female 3). The animals are fastened but supplied with free water for 10 h, and then are administrated ig with 35 mg/kg, 70 mg/kg or 140 mg/kg rhein. Blood samples are collected from carotid artery cannula at 0.033 h, 0.083 h, 0.25 h, 0.5 h, 0.75 h, 1 h, 2 h, 3 h, 4 h, 6 h, 8 h, 12 h and 14 h after administration, and centrifuged. 50 μl plasma is used for HPLC-fluorescence (FLD) analysis. The obtained plasma rhein concentration-time data are used for calculating pharmacokinetic parameters via corresponding pharmacokinetic programmes.

[5] = rhein 100 mg/Kg by gavage for 4 weeks

SMILES: O=C(O)c1cc(O)c2c(c1)C(=O)c1cccc(O)c1C2=O [rhein]
- FBG (fasting blood glucose) [1, 5]: 5.3 ± 0.5 mmol/L
- SSBG (steady state blood glucose) [1, 5]: 14.9 ± 0.8 mmol/L
- GIR (glucose infusion rate) ([1]; rhein 100 mg/Kg by gavage for 4 weeks, Table 1): 32.2 ± 2.9 mg/kg/min
- glucose infusion rate (GIR) at steady-state ([1]; treatment with rhein for 4 weeks): 26.1 ± 2.9 mg/kg/min
- AUC-glucose [2]: 1834 ± 151
- AUC-insulin [2]: 812 ± 80
- AUCINSO-30 (AUC of insulin within 0-30 min) [2]: 63 ± 32
- Blood glucose ([2]; 0 min): 7.6 ± 0.7 mmol/L
- plasma insulin ([2]; 0 min): 5.3 ± 0.7 µg/L
- Blood glucose ([2]; 30 min): 19.5 ± 1.5 mmol/L
- plasma insulin ([2]; 30 min): 9.5 ± 1.9 µg/L
- Blood glucose ([2]; 60 min): 18.3 ± 2.0 mmol/L
- plasma insulin ([2]; 60 min): 6.0 ± 0.7 µg/L
- Blood glucose ([2]; 120 min): 10.4 ± 1.1 mmol/L
- plasma insulin ([2]; 120 min): 5.9 ± 0.6 µg/L
- insulin expression level in the pancreatic islets (insulin staining) ([3]; vs db/db control group): significantly enhances insulin expression level in the pancreatic islets
- amount (mass) of pancreatic islet β-cells ([3]; vs untreated db/db): increases the mass of pancreatic islet β-cells; also recorded: significantly reduces the loss of pancreatic islet β-cells
- Plasma rhein concentration ([4]; gavage 35 mg/kg, 0.033 h, individual rats 1-6, 35 mg/kg): 15.34 µg/mL and 19.11 µg/mL and 10.10 µg/mL and 10.54 µg/mL and 24.21 µg/mL and 9.45 µg/mL
- Plasma rhein concentration ([4]; gavage 35 mg/kg, 0.033 h, mean (X) of 6 rats): 14.79 µg/mL
- Plasma rhein concentration ([4]; gavage 35 mg/kg, 0.083 h, individual rats 1-6, 35 mg/kg): 22.07 µg/mL and 44.52 µg/mL and 22.33 µg/mL and 16.18 µg/mL and 40.94 µg/mL and 19.99 µg/mL
- Plasma rhein concentration ([4]; gavage 35 mg/kg, 0.083 h, mean (X) of 6 rats): 27.67 µg/mL
- Plasma rhein concentration ([4]; gavage 35 mg/kg, 0.25 h, individual rats 1-6, 35 mg/kg): 27.43 µg/mL and 45.05 µg/mL and 26.00 µg/mL and 26.86 µg/mL and 59.77 µg/mL and 24.59 µg/mL
- Plasma rhein concentration ([4]; gavage 35 mg/kg, 0.25 h, mean (X) of 6 rats): 34.95 µg/mL
- Plasma rhein concentration ([4]; gavage 35 mg/kg, 0.50 h, individual rats 1-6, 35 mg/kg): 22.01 µg/mL and 22.71 µg/mL and 28.87 µg/mL and 26.88 µg/mL and 55.32 µg/mL and 22.99 µg/mL
- Plasma rhein concentration ([4]; gavage 35 mg/kg, 0.50 h, mean (X) of 6 rats): 29.80 µg/mL
- Plasma rhein concentration ([4]; gavage 35 mg/kg, 0.75 h, individual rats 1-6, 35 mg/kg): 18.92 µg/mL and 18.72 µg/mL and 35.43 µg/mL and 35.51 µg/mL and 45.07 µg/mL and 15.62 µg/mL
- Plasma rhein concentration ([4]; gavage 35 mg/kg, 0.75 h, mean (X) of 6 rats): 28.21 µg/mL
- Plasma rhein concentration ([4]; gavage 35 mg/kg, 1.0 h, individual rats 1-6, 35 mg/kg): 19.13 µg/mL and 19.96 µg/mL and 21.75 µg/mL and 27.32 µg/mL and 37.07 µg/mL and 15.78 µg/mL
- Plasma rhein concentration ([4]; gavage 35 mg/kg, 1.0 h, mean (X) of 6 rats): 23.50 µg/mL
- Plasma rhein concentration ([4]; gavage 35 mg/kg, 2.0 h, individual rats 1-6, 35 mg/kg): 8.25 µg/mL and 4.26 µg/mL and 7.88 µg/mL and 7.44 µg/mL and 7.45 µg/mL and 15.41 µg/mL
- Plasma rhein concentration ([4]; gavage 35 mg/kg, 2.0 h, mean (X) of 6 rats): 8.45 µg/mL
- Plasma rhein concentration ([4]; gavage 35 mg/kg, 3.0 h, individual rats 1-6, 35 mg/kg): 4.03 µg/mL and 4.23 µg/mL and 4.39 µg/mL and 4.04 µg/mL and 2.99 µg/mL and 4.38 µg/mL
- Plasma rhein concentration ([4]; gavage 35 mg/kg, 3.0 h, mean (X) of 6 rats): 4.01 µg/mL
- Plasma rhein concentration ([4]; gavage 35 mg/kg, 4.0 h, individual rats 1-6, 35 mg/kg): 3.98 µg/mL and 4.16 µg/mL and 1.70 µg/mL and 3.75 µg/mL and 1.31 µg/mL and 4.91 µg/mL
- Plasma rhein concentration ([4]; gavage 35 mg/kg, 4.0 h, mean (X) of 6 rats): 3.30 µg/mL
- Plasma rhein concentration ([4]; gavage 35 mg/kg, 6.0 h, individual rats 1-6, 35 mg/kg): 3.08 μg/ml (2×) and 2.69 μg/ml and 2.89 μg/ml and 0.57 μg/ml and 0.86 μg/ml
- Plasma rhein concentration ([4]; gavage 35 mg/kg, 6.0 h, mean (X) of 6 rats): 2.19 µg/mL
- Plasma rhein concentration ([4]; gavage 35 mg/kg, 8.0 h, individual rats 1-6, 35 mg/kg): 4.99 µg/mL and 0.75 µg/mL and 1.94 µg/mL and 2.05 µg/mL and 1.07 µg/mL and 0.34 µg/mL
- Plasma rhein concentration ([4]; gavage 35 mg/kg, 8.0 h, mean (X) of 6 rats): 1.86 µg/mL
- Plasma rhein concentration ([4]; gavage 35 mg/kg, 12.0 h, individual rats 1-6, 35 mg/kg): 0.58 μg/ml and 0.18 μg/ml and 1.13 μg/ml and 1.35 μg/ml and ND (Lower than the minimal detectable concentration 0.13 μg/ml) and 0.36 μg/ml
- Plasma rhein concentration ([4]; gavage 35 mg/kg, 12.0 h, mean (X) of 6 rats): 0.60 µg/mL
- Plasma rhein concentration ([4]; gavage 35 mg/kg, 14.0 h, individual rats 1-6, 35 mg/kg): 0.51 μg/ml and ND (Lower than the minimal detectable concentration 0.13 μg/ml) (3×) and 0.50 μg/ml and 0.56 μg/ml
- Plasma rhein concentration ([4]; gavage 35 mg/kg, 14.0 h, mean (X) of 6 rats): 0.35 µg/mL
- Plasma rhein concentration ([4]; gavage 70 mg/kg, 1.0 h, individual rats 1-6, 70 mg/kg): 30.42 µg/mL and 40.86 µg/mL and 29.41 µg/mL and 35.89 µg/mL and 20.75 µg/mL and 58.65 µg/mL
- Plasma rhein concentration ([4]; gavage 70 mg/kg, 1.0 h, mean (x) of 6 rats): 36.00 µg/mL
- Plasma rhein concentration ([4]; gavage 70 mg/kg, 2.0 h, individual rats 1-6, 70 mg/kg): 13.29 µg/mL and 34.33 µg/mL
- AUC ([4]; ig 35 mg/kg): 69.52 ± 9.13 µg·h/mL
- actually-measured peak time ([4]; ig 35 mg/kg): 0.42 ± 0.26 h
- calculated half life ([4]; ig 35 mg/kg): 3.22 ± 1.21 h
- peak concentration ([4]; ig 35 mg/kg): 37.96 ± 12.87 µg/mL
- AUC ([4]; ig 70 mg/kg): 164.29 ± 44.77 µg·h/mL
- actually-measured peak time ([4]; ig 70 mg/kg): 0.50 ± 0.27 h
- calculated half life ([4]; ig 70 mg/kg): 3.68 ± 1.42 h
- peak concentration ([4]; ig 70 mg/kg): 54.64 ± 11.60 µg/mL
- AUC ([4]; ig 140 mg/kg): 237.75 ± 42.81 µg·h/mL
- actually-measured peak time ([4]; ig 140 mg/kg): 0.38 ± 0.14 h
- calculated half life ([4]; ig 140 mg/kg): 4.30 ± 1.55 h
- peak concentration ([4]; ig 140 mg/kg): 67.17 ± 14.62 µg/mL
- pharmacokinetics in the tested dosage range (dose linearity) ([4]; ig 35-140 mg/kg): approximately linear
